One block for each molecule: values may come before it.
Columns and labels:
TdT [1] = biological target: T1, TdT (Bos taurus, UniProt P06526); assay: TdT tailing of 3' recessed-end dsDNA substrate, electrophoresis and silver staining; assay type: biochemical; conditions: 37° C. for 60 minutes; for TdT tailing of 3' recessed-end substrate, alternative ingredients: compared with dATP and Co2+ buffer, FIG. 3
T1 construct: purchased
Protocol: 3′ recessed dsDNA was prepared by annealing 25 μM each of SEQ ID NO: 2 and SEQ ID NO: 3 in Tris-HCl pH 8 (25 mM), NaCl (12.5 mM), and EDTA (0.25 mM). 2.5 pmole of the annealed substrate was incubated in 20 μL of reaction mixtures containing PMSF (0.5 mM), dATP (2 mM), TRITON® X-100 (0.1%), Tris-acetate pH 7.9 (20 mM), and either Mg^2+ or Co^2+ in chloride salt form (M^2+, 0.75 mM) as tailing cofactors, with (+) or without (−) of TdT (0.25 μL) at 37° C. for 60 minutes followed by 75° C. for 20 minutes. Subsequently, all the reactions were loaded for electrophoresis.
5 pmole of the 3′ recessed-end substrate as in Example 2 was incubated in 10 μL of reaction containing HEPES (H) or Tris-acetate (T) pH 7.9 (20 mM), dATP (dA) or dGTP (dG) (2 mM), CoCl2 (Co) or MnCl2 (Mn) (0.75 or 2 mM), DTT (0 or 0.2 mM), and TdT (0 or 0.25 μL) at 37° C. for 60 minutes followed by 75° C. for 20 minutes before loading half of the samples for electrophoresis (FIG. 3).

[2] = Precipitation by optical density at 600 nm, with or without bovine serum albumin; assay type: physicochemical; conditions: for protein aggregation / precipitation with bovine serum albumin (visual and OD600): BSA 10 g/L, pH 4.5, 5.5 and 7.2, FIG. 6
Protocol: A total of 180 μL of reactions per well were prepared at ambient temperature in a 96-well plate. These reactions contained various buffers (none or 100 mM) at specified pH levels, Cu^2+ salts in either sulfate (no pH adjustment) or citrate form (at pH 4.5 or 7.2, as specified) at the indicated concentrations, and bovine serum albumin (10 g/L final concentration) in FIG. 6. The reactions were prepared in triplicate, photographed directly (FIG. 6, lower), and measured for optical density at 600 nm (FIG. 6, upper) to indicate precipitation.

pancreatic nucleases = assay: RNaseAlert fluorescent assay of nuclease activity in crude pancreatic lysate; assay type: biochemical, murine; conditions: for inhibition of nuclease activity by Cu2+ in the presence of chelators: 2 mM CuSO4 plus 2 mM chelator, FIG. 10
Protocol: The crude pancreatic lysate was prepared by lyzing 10 mg of murine pancreas in 400 μL of lysis buffer (HEPES pH 7.2 20 mM, NaCl 146 mM, CaCl2 1 mM, MgCl2 21 mM, TWEEN® 20 0.1%, NP-40 0.1%, and digitonin 0.01%). The lysis was performed by bead beating (10 seconds, 4500 rpm) in 2 ml plastic tubes containing 6 glass beads of 2.5-mm diameter. The lysate was subjected to centrifugation at 17,000 RCF for 1 minute before the cleared nuclease-laden supernatant was kept for the assays.
To detect the nuclease activity, an RNaseAlert™ oligo made of chimeric DNA-RNA-DNA with a green fluorescence molecule on one end and a quencher on the other (50 nM) was used in 25 μL final reaction volume. The reactions were conducted in the pancreatic lysis buffer with a final volume of 25 μL, containing the specified additives (pancreatic lyate, CuSO4, or ZnSO4) in FIG. 5. After incubating at ambient temperature for 30 minutes, the reactions were diluted with 150 μL of the same buffer, excluding substrates and the lysate. Fluorescence detection was performed in triplicate, with excitation at 490 nm and emission at 520 nm.
(§1) The RNaseAlert™ oligo (50 nM) was prepared in pancreatic lysis buffer with a final volume of 25 μL, containing the specified additives (pancreatic lysate, CuSO4, or Cu^2+-citric acid at various concentrations) in FIG. 7. After incubating at ambient temperature for 30 minutes, the reactions were diluted to 150 μL with the same buffer, excluding substrates and lysate, for fluorescence quantification in triplicate of 50 μL.
as §1, with “lysis buffer, either HEPES-SO4 at pH 4.5 or HEPES at pH 7.2,” for “lysis buffer”, “lysate, Cu^2+,” for “lysate, CuSO4,”, “or chelators) and pH levels (pH 4.5 or 7.2)” for “or Cu^2+-citric acid at various concentrations)”, “FIG. 8.” for “FIG. 7.”
The RNaseAlert™ oligo (50 nM) was prepared in the pancreatic lysis buffer to a final volume of 25 μL, containing the specified additives (pancreatic lysate, 2 mM CuSO4, or 2 mM of various chelators), as shown in FIG. 10. After incubating at ambient temperature for 30 minutes, the reactions were diluted to 150 μL with the same buffer, excluding substrates and lysate, for fluorescence quantification in triplicate of 50 μL.
The RNaseAlert™ oligo (50 nM) was prepared in either the pancreatic lysis buffer (Buffer P) or a low-pH buffer (Buffer C, composed of 25 mM citrate at pH 3 and 250 mM sucrose) to a final volume of 25 μL. The preparation contained the specified additives (pancreatic lysate, 1% DEPC, and Cu^2+-citric acid at specified concentrations) and is depicted in FIG. 11. After incubating at ambient temperature for 30 minutes, the reactions were diluted to 150 μL with the same buffer, excluding substrates and lysate, for fluorescence quantification in triplicate of 50 μL.

TdT [3] = biological target: T1, TdT; assay: TdT tailing of ssDNA oligo, electrophoresis and silver staining; assay type: biochemical; conditions: dATP 2 mM, FIG. 1
Protocol: 0.5 pmole of an ssDNA oligo (SEQ ID NO: 1) was incubated in 10 μL volumes of various compositions plus dATP (2 mM) and commercial TdT (0.25 μL) at 37° C., 45° C., 55° C., 65° C., 75° C. for 30, 5, 5, 5, 20 minutes, respectively. All the reaction was used for electrophoresis (FIG. 1).

micrococcal nuclease = micrococcal nuclease (Staphylococcus aureus, UniProt P00644); assay: RNaseAlert fluorescent assay with micrococcal nuclease; assay type: biochemical; conditions: micrococcal nuclease 200 gel units, 10 minutes at ambient temperature, FIG. 9
Protocol: as §1, with “Cu^2+-citric acid,” for “CuSO4,”, “or” for “or Cu^2+-citric acid at”, “nucleases)” for “concentrations)”, “9.” for “7.”, “10” for “30”

RNase A = biological target: T2, RNase A (Bos taurus, UniProt P61823); assay: RNaseAlert fluorescent assay with RNase A; assay type: biochemical; conditions: RNase A 50 ng, 10 minutes at ambient temperature, FIG. 9
T2 sequence (P61823 27-150): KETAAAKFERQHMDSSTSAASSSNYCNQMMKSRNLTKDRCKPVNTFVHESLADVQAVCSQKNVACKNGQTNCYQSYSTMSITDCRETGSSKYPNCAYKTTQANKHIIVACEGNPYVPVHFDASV
Protocol: as §1, with “Cu^2+-citric acid,” for “CuSO4,”, “or” for “or Cu^2+-citric acid at”, “nucleases)” for “concentrations)”, “9.” for “7.”, “10” for “30”

benzonase = benzonase (Serratia marcescens, UniProt P13717); assay: RNaseAlert fluorescent assay with benzonase; assay type: biochemical; conditions: benzonase 20 units, 10 minutes at ambient temperature, FIG. 9
benzonase, sequence (P13717 22-266): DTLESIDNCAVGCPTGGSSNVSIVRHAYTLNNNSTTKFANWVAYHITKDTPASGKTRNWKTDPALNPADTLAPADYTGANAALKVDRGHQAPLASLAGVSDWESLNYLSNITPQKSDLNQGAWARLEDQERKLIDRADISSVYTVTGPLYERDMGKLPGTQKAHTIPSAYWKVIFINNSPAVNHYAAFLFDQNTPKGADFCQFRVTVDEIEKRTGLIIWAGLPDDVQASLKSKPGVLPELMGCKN
Protocol: as §1, with “Cu^2+-citric acid,” for “CuSO4,”, “or” for “or Cu^2+-citric acid at”, “nucleases)” for “concentrations)”, “9.” for “7.”, “10” for “30”

pancreatic nuclease = assay: RT-qPCR of nuclear mRNA (GAPDH, PSMB4) in HEK293 nuclei exposed to pancreatic lysate; assay type: biochemical, murine; conditions: 10 mM complex, pH 4.5 and 7.2, HEK293 nuclei, FIG. 12
Protocol: To mimic nuclear extraction by direct lysis of challenging organs, HEK293 cells were lysed in the presence of nuclease-rich pancreatic lysate, with or without the Cu^2+-chelator complex: Thirty μL of pancreatic lysis buffer containing 50 mM HEPES at pH 4.5 or 7.2, 1× Halt proteinase inhibitor, 2 μL of pancreatic lysate, and either 0 mM (control) or 10 mM of Cu^2+-citric acid complex from 250 mM stock solutions (at pH 4.5 and 7.2, respectively) were prepared on ice. 20,000 HEK293T cells in 2 μL of PBS were added to the lysis buffer, and the nuclei were released by rotating the cells in the fridge for 15 minutes. The nuclear pellets were obtained by centrifugation in a swing-bucket rotor at 1,000 g for 1 minute, washed twice with the same buffers excluding HALT, with the detergent in the wash buffer removed and replaced with 0.05% PVA. The washed nuclei were lysed with 15 μL of lysis buffer containing 0.2% TX-100 and […] proteinase K by vortexing at 1,200 rpm for 30 minutes at 37° C. The lysate was divided equally into 20 μL RT reactions, each containing RNA lysates, 0.2 μL of PMSF (50 mM in DMSO), 1× RT buffer (Tris-HCl pH 8.3, 50 mM; KCl, 75 mM; MgCl2, 3 mM; DTT, 5 mM), dNTPs (final concentration 0.5 mM each), homemade rat RNase inhibitor (100 ng), PVA (0.05%), T23VN (1 μM), and either 0 (for genomic DNA control) or 100 ng of homemade reverse transcriptase. […]

T1 sequence (P06526 whole entry): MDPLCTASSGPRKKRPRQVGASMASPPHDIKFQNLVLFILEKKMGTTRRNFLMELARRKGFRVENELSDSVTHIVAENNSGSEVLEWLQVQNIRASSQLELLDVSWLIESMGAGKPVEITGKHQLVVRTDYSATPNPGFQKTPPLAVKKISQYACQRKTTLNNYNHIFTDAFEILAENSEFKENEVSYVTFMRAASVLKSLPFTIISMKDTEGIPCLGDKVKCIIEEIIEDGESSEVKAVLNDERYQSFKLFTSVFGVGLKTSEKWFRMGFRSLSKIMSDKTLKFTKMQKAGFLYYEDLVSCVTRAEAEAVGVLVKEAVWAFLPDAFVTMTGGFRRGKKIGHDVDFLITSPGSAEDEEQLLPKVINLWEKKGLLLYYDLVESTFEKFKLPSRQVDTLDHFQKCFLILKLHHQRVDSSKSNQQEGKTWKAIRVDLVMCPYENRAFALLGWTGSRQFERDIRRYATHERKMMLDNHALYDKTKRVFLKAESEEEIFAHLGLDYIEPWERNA

TdT tailing of 3' recessed-end substrate, alternative ingredients (TdT [1]): does not affect the results
Compound: O[C@H](CS)[C@H](O)CS (racemic) [DTT, dithiothreitol]

solubility in water (precipitation, OD600) ([2]; neutral pH, no protein, concentrations as low as 1 mM, FIG. 6): only minimally soluble
Compound: O=S(=O)([O-])[O-].[Cu+2] [Cu^2+, CuSO4]
protein aggregation / precipitation with bovine serum albumin (visual and OD600) [2]: severe protein aggregation at pH above 5.5 | nuclease activity in pancreatic lysate (pancreatic nucleases; CuSO4 in pancreatic lysis buffer pH 7.2, 30 minutes at ambient temperature, FIG. 5): effectively diminished the nuclease activity

Compound: O=C(O)CN(CC(=O)O)CC(=O)O.[Cu] [Cu^2+ with nitrilotriacetic acid (NTA), copper; 2-[bis(carboxylatomethyl)amino]acetate;hydron]
inhibition of nuclease activity by Cu2+ in the presence of chelators (pancreatic nucleases; 30 minutes): still inhibited nuclease activity

TdT tailing of 3' recessed-end substrate, alternative ingredients (TdT [1]): detrimental
Compound: Nc1nc2c(ncn2[C@H]2C[C@H](O)[C@@H](COP(=O)(O)OP(=O)(O)OP(=O)(O)O)O2)c(=O)[nH]1 [dGTP]

Compound: [Cl][Co][Cl] [Co^2+, cobalt chloride]
TdT tailing of 3' recessed-end substrate, Co2+ versus Mg2+ (TdT [1]; M2+ 0.75 mM, dATP 2 mM, FIG. 2): nearly complete upshift of the substrate | TdT poly(dA) tailing of ssDNA substrate (TdT [3]): could replace Mg^2+ for tailing the ssDNA

Compound: O=C(O)CC(O)(CC(=O)O)C(=O)O.[Cu].[Cu] [Cu^2+-citric acid complex, dicopper; 2-hydroxypropane-1,2,3-tricarboxylic acid]
blocking of micrococcal nuclease activity (micrococcal nuclease): capable of blocking the activities | blocking of RNase A activity (RNase A): capable of blocking the activities | blocking of benzonase activity (benzonase): capable of blocking the activities | protein aggregation / precipitation with bovine serum albumin (visual and OD600) [2]: resolved this issue at all pH values tested | inhibition of nuclease activity by Cu2+ in the presence of chelators (pancreatic nucleases; 30 minutes): still inhibited nuclease activity | RNase inhibition compared with low-pH buffer and DEPC (pancreatic nucleases; 10 mM complex, 30 minutes, FIG. 11): comparable RNase inhibition to the low-pH buffer | nuclease-blocking activity at acidic and neutral pH (pancreatic nucleases; pH 4.5 and pH 7.2, FIG. 8): active at both acidic and neutral pH | blocking of pancreatic nuclease activity, chelated versus unchelated Cu2+ (pancreatic nucleases; various concentrations, 30 minutes at ambient temperature, FIG. 7): still capable of blocking pancreatic nuclease activity in a dose-dependent manner, similar or even more potent to the unchelated form | protection of nuclear RNA from degradation by pancreatic nuclease (pancreatic nuclease): necessary to protect and retain nuclear RNA from complete degradation

Compound: CC(=O)[O-].CC(=O)[O-].[Mg+2] [Mg^2+, magnesium acetate]
TdT poly(dA) tailing of ssDNA substrate (TdT [3]): yielded shorter tails

Compound: CC(=O)[O-].[K+] [K^+, potassium acetate]
TdT poly(dA) tailing of ssDNA substrate (TdT [3]): detrimental to tailing

TdT tailing of 3' recessed-end substrate, alternative ingredients (TdT [1]): not to improve
Compound: [Cl][Mn][Cl] [Mn^2+, MnCl2]
